What was measured:
[1] = system: Quarter-Udders in Pregnant Beef Cattle; experiment: Intramammary infusion of prostaglandin E1 or E2, quarter-udder weights and DNA (Examples 25-28); format: in vivo, cross-bred beef cows; settings: for DNA, % Increase, (A-B)/B / DNA, Mean Increase (A-B) / Dry Weight, % Increase, (A-B)/B / Dry Weight, Mean Increase (A-B) / Wet Weight, % Increase, (A-B)/B / Wet Weight, Mean Increase (A-B) / Dry Fat-Free Weight, % Increase, (A-B)/B / Dry Fat-Free Weight, Mean Increase (A-B): B = excipient only
Procedure: 24 pregnant, non-lactating, cross-bred beef cows in their last 45-105 days of gestation were housed in a free-stall facility, fed a ration of alfalfa hay and pelleted concentrate, and administered 5 ml of an excepient (MCT-Oil, a Mead Johnson Corp. medium chain triglyceride which is a lipid fraction of coconut oil consisting primarily of triglycerides of C8 and C10 fatty acids as follows: C8 -67%; C10 -23%; <C8 -6%; >C10 -4%) into each quarter-udder by intramammary infusion through the streak cannal on days 1, 3, 5, 7 and 9 of this study. The 48 front and rear udder halves were randomly divided into 4 groups, with one quarter of each udder half treated and its laterally opposite quarter-udder used as a control. In the treatment infusions, the excipient contained Prostaglandin (PG) E1 or E2 from Sigma Chemical Co., St. Louis, Mo. (Catalog Nos. 86F-0406 and -0404). The amounts of PG in each infusion were: Group 1-87.5 micrograms of E2; Group 2-875 micrograms of E2; Group 3-87.5 micrograms of E1; Group 4-875 micrograms of E1. Animals were prepared and infused as in Examples 23-24; the effects were determined as in Examples 1-2. Results for Groups 1-4 are in Tables 15-18, respectively.

[2] = system: Quarter-Udders in Pregnant Beef Cows; experiment: Intramammary infusion of hEGF or mEGF, quarter-udder weights and DNA (Examples 1-2); format: in vivo, cross-bred beef cows; settings: 25 micrograms per infusion, days 1,3,5,7,9, Freund's emulsion
Procedure: 12 pregnant, non-lactating, cross-bred beef cows within their last 40-80 days of gestation were housed in a free-stall facility, fed a ration of alfalfa hay and pelleted concentrate, and administered 10 ml of an excipient (Freund's Incomplete Adjuvant emulsified with an equal volume of 0.9% sterile saline) into each quarter-udder by intramammary infusion through the streak canal on days 1, 3, 5, 7 and 9 of this study. Infusions were carried out using a 3.2 centimeter long, approximately 12 gauge, blunt-tipped plastic teat infusion cannula obtained from Jorgensen Laboratories, Loveland, Colo. Because front and rear udder halves are not of equal size, treatment vs. control comparisons were made between laterally opposite quarters, i.e., front right vs. front left and rear right vs. rear left. Treatments were randomly assigned to right or left udder-halves, with the contralateral half serving as its control. […] (the other 6 animals).
Prior to treatment, each animal was teatdipped for 3 consecutive days and each teat was pre-cleaned with 70% ethanol in water on the day of treatment. On day 14 the cows were sacrificed and their mammary glands excised. Each udder (milked out if necessary) was skinned, divided along the median suspensory ligament and then into front right, front left, rear right and rear left udder quarters. Each quarter-udder was ground, a representative 200 gm sample was homogenized with 4 times its volume of water, and the total homogenate volume of each was measured.
To determine dry weight of each quarter-udder, three 10 ml aliquots of a 1:5 diluted homogenate were placed in pre-weighed pans, dried overnight at 60° and then dried and weighed to a consistent value.
To determine dry fat-free tissue weight of each quarter-udder, three 5 ml aliquots of the undiluted homogenate were extracted by the method of Anderson, 41 J. Anim. Sci. 118 (1975) except that samples were placed in pre-weighed 25×150 mm glass centrifuge tubes and extracted overnight with 10 ml ethanol:ether (3:1), then centrifuged (5 min at 500 rpm) and the supernatant aspirated; an additional 10 ml aliquot of ethanol:ether was added for a second extraction; and the sample was dried under nitrogen until a consistent value was obtained.
DNA in each quarter-udder was determined by the method of Burton, 12B Methods in Enzymol. 163-66 (1968) using an assay solution of 15% trichloroacetic acid (TCA) in 2N HCl. In these determinations, aliquots of gland homogenate were diluted 1:5 with water and rehomogenized. Using triplicate 0.25 ml or 0.5 ml aliquots of these homogenates, each aliquot was mixed with 2 ml of the assay solution. After 30 min, the samples were centrifuged for 10 min at 3000 rpm and the resulting pellets were washed with 2 ml of a 10% solution of TCA in distilled water. After recentrifugation, the resulting pellets were disrupted in 2 ml of 0.5N perchloric acid and heated for 30 min at 70° to extract DNA. Samples were centrifuged and 1 ml of each resulting supernatant was placed in a 12×75 mm tube. After addition of 2 ml of a solution of 1.5 g diphenylamine and 1.5 ml H2 SO4 in 100 ml glacial acetic acid (and 0.1 ml of 1.6% aqueous acetaldehyde per 20 ml reagent just prior to use), the samples were vortexed and incubated overnight at 27°. Calf thymus DNA was the standard.

[3] = total of 0.4375 milligrams (87.5 micrograms per infusion) in MCT-Oil
[4] = total of 0.4375 milligrams in MCT-Oil
[5] = total of 4.375 milligrams (875 micrograms per infusion) in MCT-Oil
[6] = total of 4.375 milligrams in MCT-Oil
[7] = B = opposite quarter, excipient only

Row | Compound | DNA, Treatment Mean [1, 3] [mg] | Dry Fat-Free Weight, Treatment Mean [1, 3] [g] | Dry Weight, Treatment Mean [1, 3] [g] | Wet Weight, Treatment Mean [1, 3] [g] | DNA, % Increase, (A-B)/B [1, 4] [%] | DNA, Mean Increase (A-B) [1, 4] [mg] | Dry Weight, % Increase, (A-B)/B [1, 4] [%] | Dry Weight, Mean Increase (A-B) [1, 4] [g] | Wet Weight, % Increase, (A-B)/B [1, 4] [%] | Wet Weight, Mean Increase (A-B) [1, 4] [g] | DNA, Treatment Mean [1, 5] [mg] | Dry Fat-Free Weight, Treatment Mean [1, 5] [g] | Dry Weight, Treatment Mean [1, 5] [g] | Wet Weight, Treatment Mean [1, 5] [g] | DNA, % Increase, (A-B)/B [1, 6] [%] | DNA, Mean Increase (A-B) [1, 6] [mg] | Dry Fat-Free Weight, % Increase, (A-B)/B [1, 6] [%] | Dry Fat-Free Weight, Mean Increase (A-B) [1, 6] [g] | Dry Weight, % Increase, (A-B)/B [1, 6] [%] | Dry Weight, Mean Increase (A-B) [1, 6] [g] | other results
1 | CCCCC[C@H](O)/C=C/[C@H]1[C@H](O)CC(=O)[C@@H]1CCCCCCC(=O)O [Prostaglandin E1, [11α,13E,15S]-11,15-Dihydroxy-9-oxoprost-13-en-1-oic acid] | 2881 | 180.9 | 259.3 | 972.5 | 26 | 597 | 23.0 | 48.7 | 25.0 | 194.5 | 4218 | 247.7 | 379.6 | 1435.5 | 51.1 | 1426 | 31.0 | 58.7 | 41.5 | 111.4 | Wet Weight, % Increase, (A-B)/B [1, 6]: 51.2%; Wet Weight, Mean Increase (A-B) [1, 6]: 486.2 g
2 | CCCCC[C@H](O)/C=C/[C@H]1[C@H](O)CC(=O)[C@@H]1C/C=C\CCCC(=O)O [Prostaglandin E2, [5Z,11α,13E,15S]-11,15-Dihydroxy-9-oxoprosta-5,13-dien-1-oic acid] | 5203 | 351.8 | 525.5 | 1966.9 | 10.1 | 479 | 8.3 | 40.6 | 13.3 | 231.4 | 3397 | 194.5 | 312.7 | 1030.8 | 44.6 | 1049 | 34.8 | 50.2 | 42.8 | 93.7 | Dry Fat-Free Weight, % Increase, (A-B)/B [1, 4]: 18.1%; Dry Fat-Free Weight, Mean Increase (A-B) [1, 4]: 54.0 g; Wet Weight, % Increase, (A-B)/B [1, 6]: 38.9%; Wet Weight, Mean Increase (A-B) [1, 6]: 288.8 g
3 | mEGF: mouse EGF, culture-grade, from mouse submaxillary glands, Collaborative Research Corp. Catalog No. 40001 (NSYPGCPSSYDGYCLNGGVCMHIESLDSYTCNCVIGYSGDRCQTRDLRWWELR; not fully specified; Epidermal growth factor; UniProt P01132 977-1029, looked up) | – | – | – | – | – | – | – | – | – | – | – | – | – | – | – | – | – | – | – | – | DNA, % Increase, (A-B)/B [2, 7]: 13.8%; DNA, Mean Increase (A-B) [2, 7]: 110.2 mg; Dry Fat-Free Weight, % Increase, (A-B)/B [2, 7]: 7.9%; Dry Fat-Free Weight, Mean Increase (A-B) [2, 7]: 5.0 g; Dry Weight, % Increase, (A-B)/B [2, 7]: 1.6%; Dry Weight, Mean Increase (A-B) [2, 7]: 2.3 g; Wet Weight, % Increase, (A-B)/B [2, 7]: 4.4%; Wet Weight, Mean Increase (A-B) [2, 7]: 17.6 g; DNA, Treatment Mean ([2]; day 14): 905.1 mg; Dry Fat-Free Weight, Treatment Mean ([2]; day 14): 69.6 g; Dry Weight, Treatment Mean ([2]; day 14): 150.2 g; Wet Weight, Treatment Mean ([2]; day 14): 419.6 g; DNA, Avg % Increase/Animal ([2]; vs excipient-only quarter): 12.0%; Dry Fat-Free Weight, Avg % Increase/Animal ([2]; vs excipient-only quarter): 5.2%; Dry Weight, Avg % Increase/Animal ([2]; vs excipient-only quarter): 2.1%; Wet Weight, Avg % Increase/Animal ([2]; vs excipient-only quarter): 1.8%
